# Measurements: BindingDB's records for doi:10.7270/Q2M61HQ8 (Southern Research Specialized Biocontainment Screening …, 2010)
# Molecular target: Large T antigen (Simian virus 40, UniProt P03070)
# Assay: TAg ATPase/helicase activity blockers – biochemical (AID 1903)
# Large T antigen, sequence (P03070 whole entry): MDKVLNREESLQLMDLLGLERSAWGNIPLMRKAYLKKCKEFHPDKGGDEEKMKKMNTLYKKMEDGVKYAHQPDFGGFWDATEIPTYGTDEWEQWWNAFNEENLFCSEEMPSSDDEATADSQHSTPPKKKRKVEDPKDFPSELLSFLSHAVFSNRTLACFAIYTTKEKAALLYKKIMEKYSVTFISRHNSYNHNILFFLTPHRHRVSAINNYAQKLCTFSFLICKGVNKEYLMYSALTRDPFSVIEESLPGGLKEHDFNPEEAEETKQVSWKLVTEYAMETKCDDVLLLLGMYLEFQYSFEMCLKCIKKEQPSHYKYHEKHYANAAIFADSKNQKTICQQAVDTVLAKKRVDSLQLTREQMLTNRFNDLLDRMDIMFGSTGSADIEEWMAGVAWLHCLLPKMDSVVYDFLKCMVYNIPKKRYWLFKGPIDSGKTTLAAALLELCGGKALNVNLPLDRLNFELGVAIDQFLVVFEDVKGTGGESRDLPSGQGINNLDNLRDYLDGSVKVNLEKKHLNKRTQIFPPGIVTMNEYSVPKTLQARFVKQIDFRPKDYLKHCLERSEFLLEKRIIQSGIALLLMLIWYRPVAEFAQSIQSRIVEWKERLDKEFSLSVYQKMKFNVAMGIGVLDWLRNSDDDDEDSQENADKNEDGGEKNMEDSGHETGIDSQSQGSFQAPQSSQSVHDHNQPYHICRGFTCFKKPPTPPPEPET
row,Compound,IC50 [µM]
1,Cc1ccc(Nc2oc3cc(=O)ccc-3cc2C(N)=O)cc1 [2-(4-methylanilino)-7-oxochromene-3-carboxamide],33.8
2,"O=C1CCCC(=O)C1=CNc1ccc(O)cc1 [2-[(4-hydroxyanilino)methylidene]cyclohexane-1,3-dione]",12.3
3,"N#CC1C(=N)C2=C(N3CCCCC3)CCCC2C1(C#N)C#N (stereo unspecified) [3-Amino-4-piperidin-1-yl-5,6,7,7a-tetrahydro-indene-1,1,2-tricarbonitrile]",9.99
4,"O=C1CCCC2=Nc3[nH]c(=S)[nH]c(=O)c3C(c3ccc(Br)cc3)C12 (stereo unspecified) [5-(4-bromophenyl)-2-thioxo-2,3,5,8,9,10-hexahydropyrimido[4,5-b]quinoline-4,6(1H,7H)-dione]",48.1
5,"CCN(CC)CCN1C(=O)C(=O)C(C(=O)c2ccc(C)cc2)C1c1cccnc1 (stereo unspecified) [(4E)-1-[2-(diethylamino)ethyl]-4-[hydroxy-(4-methylphenyl)methylidene]-5-(3-pyridinyl)pyrrolidine-2,3-dione]",18.9
6,CN(C)c1ccc(N=CCC(=O)c2ccccc2)cc1 [(E)-3-[4-(dimethylamino)anilino]-1-phenyl-2-propen-1-one],5.19
7,Cc1cc(-c2nc3c4c5c(sc4nc(=O)n3[nH]2)CCC5)c(C)o1 [MLS000048351],24.8
8,Oc1ccc(-c2nc3c[nH]ccn-3c2=Nc2ccc3c(c2)OCCO3)cc1 [MLS000116162],4.14
9,"CN(C)c1ccc(NC(=O)c2cccc(-n3c(O)ccc3O)c2)cc1 [N-[4-(dimethylamino)phenyl]-3-(2,5-dioxopyrrolidin-1-yl)benzamide]",9.21
10,CC1(C)CC(=O)C(=CNc2ccc(O)cc2)C(=O)C1 [SMR000024722],5.53
11,COc1cc(-c2nc3c[nH]ccn-3c2=Nc2ccccc2)ccc1O [SMR000093145],5.05
